What was measured:
[1] = tested on: RBCs from rat; assay: Hemolysis assay; format: cell-based; details: 37° C., 24 h, Triton X as positive control
Method: 7×10^7 RBCs from rat were separated by centrifugation of whole blood. The supernatant containing plasma and platelets were removed. The pellets were washed by PBS until the supernatant was clear. Different formulations were diluted to a required concentration and added to the tubes containing 1 mL diluted RBCs. The cell suspension was mixed gently and incubated at 37° C. for 24 h. Triton X-100 was served as a positive control. Hemoglobin released from RBCs was measured spectrophotometrically. The concentration of the formed product was measured at 540 nm using an ELISA reader (TECAN, Mannedorf, Switzerland) to qualify the toxicity of liposomes to RBCs.

[2] = Biosafety evaluation by serum biochemical tests; format: in vivo; details: tumor-bearing mice, 48 h after last treatment
Method: Tumor-bearing mice were treated as described above. Blood samples were taken from the orbital sinus of mice at 48 h after the final injection. The harvested samples were put at 37° C. to induce the clotting reaction and centrifuged for 15 min. The resultant serum samples were stored at −80° C. until further analysis. The functions of liver, kidney and heart were examined by detecting the serum levels of glutamate pyruvate transaminase (GPT), creatinine (CRE), and creatine kinase-MB (CK-MB) using the corresponding activity assay kits (Fujifilm, Tokyo, Japan) according to the manufacturer's instruction using a clinical dry chemistry analyzer (Fuji Dri-Chem 7000V, Fujifilm Corporation, Tokyo, Japan).
Data shown indicate the mean±SD of four experiments.

| Molecule | Hemolysis [1] | Serum levels of GPT or GOT, CRE, and CK-MB or LDH [2] |
| --- | --- | --- |
| Triton X-100 | 100% |  |
| O=C1[O][Pt]2([NH][C@@H]3CCCC[C@H]3[NH]2)[O]C1=O [Oxa, oxaliplatin] |  | remarkably escalated |

Reference: patent publication US11690803B2, “Tumor pH-shiftable coating and the nucleus-directed nanoparticles facilitate the targeted chemotherapy and gene therapy against multiple cancers and use thereof” (National Yang Ming Chiao Tung University, priority 2019, dated 2023)
